Assay results reported in patent publication EP3046573B1, “AMYLIN ANALOGUES” (Zealand Pharma A/S, priority 2013, dated 2015).
Where two headings read alike, the source gives them in different places. Numbered stars: 1 amine (or outer) side, 2 acyl side, 3 side chain; on linkers, the order of the positions; unused ones are H or OH. Bridge positions count the residues as written; N and C are the ends. Square brackets hold non-standard residues; d marks the D form. Peptide text beside a SMILES is read from it. * marks the point of attachment. C20 diacid = O=C(O)CCCCCCCCCCCCCCCCCCC(=O)*; γGlu = O=C(O)[C@H](CCC(=O)[*:2])N[*:1]; NMeI = CC[C@H](C)[C@H](NC)C(=O)O; Sar = CNCC(=O)O

Biological target: T1, human calcitonin receptor (hCTR2) (Homo sapiens, UniProt P30988)
T1 construct: expressed in transfected cells
T1 sequence (P30988 25-474): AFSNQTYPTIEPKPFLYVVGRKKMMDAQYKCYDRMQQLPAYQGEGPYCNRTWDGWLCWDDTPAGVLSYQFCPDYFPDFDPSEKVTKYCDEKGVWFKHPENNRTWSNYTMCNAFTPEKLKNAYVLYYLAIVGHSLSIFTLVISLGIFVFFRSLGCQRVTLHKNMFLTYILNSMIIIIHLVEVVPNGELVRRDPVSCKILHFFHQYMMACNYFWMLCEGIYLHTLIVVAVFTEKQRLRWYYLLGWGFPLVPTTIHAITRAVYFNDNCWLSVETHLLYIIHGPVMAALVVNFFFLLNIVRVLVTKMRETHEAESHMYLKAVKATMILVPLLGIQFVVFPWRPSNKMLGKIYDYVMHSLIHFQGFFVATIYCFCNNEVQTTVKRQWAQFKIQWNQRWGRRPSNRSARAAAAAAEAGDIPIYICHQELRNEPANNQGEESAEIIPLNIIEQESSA
Assay: hCTR2 assay: induction of cAMP (AlphaScreen cAMP Assay kit) in COS7 cells expressing hCTR2
Format: cell-based
Excerpt: The cell line COS7, originating from African Green Monkey kidney fibroblast cells, was used for establishment of the stable cell lines described below. The COS7 cellular background was used due to it being RAMP naive, and as such it provides the best available system for testing of the monomeric hCTR and different heterodimeric amylin receptor subtypes functionally generated by introduction of the individual RAMPs.
A cell line expressing the human calcitonin receptor (hCTR2) was generated in the COS7 cellular background as stable clones. In brief, hCTR2 (GI: 4502547) was amplified by PCR using primers encoding terminal restriction sites for subcloning. The 5'-end primers additionally encoded a near Kozak consensus sequence to ensure efficient translation. The fidelity of the DNA encoding the receptor was confirmed by DNA sequencing. The PCR products encoding the receptor were subcloned into a mammalian expression vector containing a neomycin (G418) resistance marker. The mammalian expression vector encoding the receptor was transfected into COS7 cells by a standard liposome transfection method. 48 hours post-transfection, cells were seeded for limited dilution cloning and selected with 1 mg/ml G418 in the culture medium. After 3 weeks, surviving colonies of hCTR2-expressing cells were picked, propagated and tested in the amylin efficacy assay as described in Example 3 below. One hCTR2-expressing clone was chosen for compound profiling.
In vitro activity of test peptides at the hCTR2 and hAMYR3 receptors was assessed by measuring the induction of cAMP following stimulation of the receptor by pramlintide or peptides of the invention using the AlphaScreen® cAMP Assay kit from Perkin-Elmer.
Briefly, COS7 cells expressing hCTR2 (see Example 2, above) were seeded at 30-40,000 cells per well in 96-well microtiter plates coated with 0.01 % poly-L-lysine, and grown for 1 day in culture in 100 µl growth medium [DMEM, 10% FCS, Penicillin (100 IU/ml), Streptomycin (100 µg/ml)]. On the day of analysis, growth medium was removed and the cells were washed once with 200 µl Tyrode buffer [Tyrode's Salts (9.6 g/l), 10 mM HEPES, pH 7.4]. Cells were incubated in 100 µl Tyrode buffer containing increasing concentrations of test peptides, 100 µM IBMX and 0.1% casein for 15 min at 37° C. The reaction was stopped by carefully decanting off the compound/buffer medium and replacing it with lysis/detection buffer (80 µl 0.1 % w/v BSA, 5 mM HEPES, 0.3 % v/v Tween-20 in deionized water). After incubation at room temperature for 10 min., the cAMP content of the resulting cell lysate was estimated according to the AlphaScreen® cAMP Assay manufacturer's instructions. EC50 values and relative efficacy values (in %) compared to reference peptide (Pramlintide) were estimated by computer-aided curve fitting using the 4-parameter logistic (4PL) non-linear model.
The in vitro activity results (expressed as EC50 values) for peptides of the invention and for Pramlintide (reference peptide) are summarized in Table 2, below.

EC50 (cAMP induction in COS7 cells expressing hCTR2, average of a minimum of 3 determinations, read-out: hCTR2 EC50) [nM]	Structure (SMILES)	EC50 [nM]
–	CC[C@H](C)[C@@H](C(=O)N[C@@H](CC(C)C)C(=O)N[C@@H](CO)C(=O)N[C@@H](CO)C(=O)N[C@H](C(=O)N[C@@H](CC(N)=O)C(=O)N[C@H](C(=O)NCC(=O)N[C@@H](CO)C(=O)N[C@@H](CC(N)=O)C(=O)N[C@H](C(=O)N1CCC[C@H]1C(N)=O)[C@@H](C)O)C(C)C)[C@@H](C)O)N(C)C(=O)[C@H](C)NC(=O)CN(C)C(=O)[C@H](Cc1ccccc1)NC(=O)[C@H](CC(N)=O)NC(=O)[C@H](CC(N)=O)NC(=O)[C@H](CO)NC(=O)[C@H](CO)NC(=O)[C@@H](Cc1c[nH]cn1)NC(=O)[C@H](Cc1c[nH]cn1)NC(=O)[C@H](CC(C)C)NC(=O)[C@H](Cc1ccccc1)NC(=O)[C@H](CCC(=O)O)NC(=O)[C@H](C)NC(=O)[C@H](CC(C)C)NC(=O)[C@H](CCCNC(=N)N)NC(=O)[C@H](CCC(N)=O)NC(=O)[C@@H](NC(=O)[C@H](C)NC(=O)[C@@H]1CSSC[C@H](NC(=O)[C@H](CCCNC(=N)N)NC(=O)CC[C@H](NC(=O)CCCCCCCCCCCCCCCCCCC(=O)O)C(=O)O)C(=O)N[C@@H](CC(N)=O)C(=O)N[C@@H]([C@@H](C)O)C(=O)N[C@@H](C)C(=O)N[C@@H]([C@@H](C)O)C(=O)N1)[C@@H](C)O [Compound 12, [19CD]-isoGlu-RC()NTATC()ATQRLAEFLH-DHis-SSNNF-Gly(Me)-A-Ile(Me)-LSSTNVGSNTP-NH2] ({C20 diacid-γGlu}-RCNTATCATQRLAEFLH[dH]SSNNF[Sar]A[NMeI]LSSTNVGSNTP-NH2; disulfide 2-7)	0.088
–	CC[C@H](C)[C@@H](C(=O)N[C@@H](CC(C)C)C(=O)N[C@@H](CO)C(=O)N[C@@H](CO)C(=O)N[C@H](C(=O)N[C@@H](CC(N)=O)C(=O)N[C@H](C(=O)NCC(=O)N[C@@H](CO)C(=O)N[C@@H](CC(N)=O)C(=O)N[C@H](C(=O)N1CCC[C@H]1C(N)=O)[C@@H](C)O)C(C)C)[C@@H](C)O)N(C)C(=O)[C@H](C)NC(=O)CN(C)C(=O)[C@@H](Cc1ccccc1)NC(=O)[C@H](CC(N)=O)NC(=O)[C@H](CC(N)=O)NC(=O)[C@H](CO)NC(=O)[C@H](CO)NC(=O)[C@H](Cc1c[nH]cn1)NC(=O)[C@H](Cc1c[nH]cn1)NC(=O)[C@H](CC(C)C)NC(=O)[C@H](Cc1ccccc1)NC(=O)[C@H](CCC(=O)O)NC(=O)[C@H](C)NC(=O)[C@H](CC(C)C)NC(=O)[C@H](CCCNC(=N)N)NC(=O)[C@H](CCC(N)=O)NC(=O)[C@@H](NC(=O)[C@H](C)NC(=O)[C@@H]1CSSC[C@H](NC(=O)[C@H](CCCNC(=N)N)NC(=O)CC[C@H](NC(=O)CCCCCCCCCCCCCCCCCCC(=O)O)C(=O)O)C(=O)N[C@@H](CC(N)=O)C(=O)N[C@@H]([C@@H](C)O)C(=O)N[C@@H](C)C(=O)N[C@@H]([C@@H](C)O)C(=O)N1)[C@@H](C)O [Compound 13, [19CD]-isoGlu-RC()NTATC()ATQRLAEFLHHSSNN-DPhe-Gly(Me)-A-Ile(Me)-LSSTNVGSNTP-NH2] ({C20 diacid-γGlu}-RCNTATCATQRLAEFLHHSSNN[dF][Sar]A[NMeI]LSSTNVGSNTP-NH2; disulfide 2-7)	0.067
–	CC[C@H](C)[C@@H](C(=O)N[C@@H](CC(C)C)C(=O)N[C@@H](CO)C(=O)N[C@@H](CO)C(=O)N[C@H](C(=O)N[C@@H](CC(N)=O)C(=O)N[C@H](C(=O)NCC(=O)N[C@@H](CO)C(=O)N[C@@H](CC(N)=O)C(=O)N[C@H](C(=O)N1CCC[C@H]1C(N)=O)[C@@H](C)O)C(C)C)[C@@H](C)O)N(C)C(=O)[C@@H](C)NC(=O)CN(C)C(=O)[C@H](Cc1ccccc1)NC(=O)[C@H](CC(N)=O)NC(=O)[C@H](CC(N)=O)NC(=O)[C@H](CO)NC(=O)[C@H](CO)NC(=O)[C@H](Cc1c[nH]cn1)NC(=O)[C@H](Cc1c[nH]cn1)NC(=O)[C@H](CC(C)C)NC(=O)[C@H](Cc1ccccc1)NC(=O)[C@H](CCC(=O)O)NC(=O)[C@H](C)NC(=O)[C@H](CC(C)C)NC(=O)[C@H](CCCNC(=N)N)NC(=O)[C@H](CCC(N)=O)NC(=O)[C@@H](NC(=O)[C@H](C)NC(=O)[C@@H]1CSSC[C@H](NC(=O)[C@H](CCCNC(=N)N)NC(=O)CC[C@H](NC(=O)CCCCCCCCCCCCCCCCCCC(=O)O)C(=O)O)C(=O)N[C@@H](CC(N)=O)C(=O)N[C@@H]([C@@H](C)O)C(=O)N[C@@H](C)C(=O)N[C@@H]([C@@H](C)O)C(=O)N1)[C@@H](C)O [Compound 14, [19CD]-isoGlu-RC()NTATC()ATQRLAEFLHHSSNNF-Gly(Me)-DAla-Ile(Me)-LSSTNVGSNTP-NH2] ({C20 diacid-γGlu}-RCNTATCATQRLAEFLHHSSNNF[Sar][dA][NMeI]LSSTNVGSNTP-NH2; disulfide 2-7)	0.21
–	CC[C@H](C)[C@@H](C(=O)N[C@H](CC(C)C)C(=O)N[C@@H](CO)C(=O)N[C@@H](CO)C(=O)N[C@H](C(=O)N[C@@H](CC(N)=O)C(=O)N[C@H](C(=O)NCC(=O)N[C@@H](CO)C(=O)N[C@@H](CC(N)=O)C(=O)N[C@H](C(=O)N1CCC[C@H]1C(N)=O)[C@@H](C)O)C(C)C)[C@@H](C)O)N(C)C(=O)[C@H](C)NC(=O)CN(C)C(=O)[C@H](Cc1ccccc1)NC(=O)[C@H](CC(N)=O)NC(=O)[C@H](CC(N)=O)NC(=O)[C@H](CO)NC(=O)[C@H](CO)NC(=O)[C@H](Cc1c[nH]cn1)NC(=O)[C@H](Cc1c[nH]cn1)NC(=O)[C@H](CC(C)C)NC(=O)[C@H](Cc1ccccc1)NC(=O)[C@H](CCC(=O)O)NC(=O)[C@H](C)NC(=O)[C@H](CC(C)C)NC(=O)[C@H](CCCNC(=N)N)NC(=O)[C@H](CCC(N)=O)NC(=O)[C@@H](NC(=O)[C@H](C)NC(=O)[C@@H]1CSSC[C@H](NC(=O)[C@H](CCCNC(=N)N)NC(=O)CC[C@H](NC(=O)CCCCCCCCCCCCCCCCCCC(=O)O)C(=O)O)C(=O)N[C@@H](CC(N)=O)C(=O)N[C@@H]([C@@H](C)O)C(=O)N[C@@H](C)C(=O)N[C@@H]([C@@H](C)O)C(=O)N1)[C@@H](C)O [Compound 15, [19CD]-isoGlu-RC()NTA TC()ATQRLAEFLHHSSNNF-Gly(Me)-A-Ile(Me)-DLeu-SSTNVGSNTP-NH2] ({C20 diacid-γGlu}-RCNTATCATQRLAEFLHHSSNNF[Sar]A[NMeI][dL]SSTNVGSNTP-NH2; disulfide 2-7)	0.16
0.076	CC[C@H](C)[C@@H](C(=O)N[C@@H](CC(C)C)C(=O)N[C@@H](CO)C(=O)N[C@@H](CO)C(=O)N[C@H](C(=O)N[C@@H](CC(N)=O)C(=O)N[C@H](C(=O)NCC(=O)N[C@@H](CO)C(=O)N[C@@H](CC(N)=O)C(=O)N[C@H](C(=O)N1CCC[C@H]1C(N)=O)[C@@H](C)O)C(C)C)[C@@H](C)O)N(C)C(=O)[C@H](C)NC(=O)[C@H](C)NC(=O)[C@H](Cc1ccccc1)NC(=O)[C@H](CC(N)=O)NC(=O)[C@H](CC(N)=O)NC(=O)[C@H](CO)NC(=O)[C@H](CO)NC(=O)[C@H](Cc1c[nH]cn1)NC(=O)[C@H](Cc1c[nH]cn1)NC(=O)[C@H](CC(C)C)NC(=O)[C@H](Cc1ccccc1)NC(=O)[C@H](CCC(=O)O)NC(=O)[C@H](C)NC(=O)[C@H](CC(C)C)NC(=O)[C@H](CCCNC(=N)N)NC(=O)[C@H](CCC(N)=O)NC(=O)[C@@H](NC(=O)[C@H](C)NC(=O)[C@@H]1CSSC[C@H](NC(=O)[C@H](CCCNC(=N)N)NC(=O)CC[C@H](NC(=O)CCCCCCCCCCCCCCCCCCC(=O)O)C(=O)O)C(=O)N[C@@H](CC(N)=O)C(=O)N[C@@H]([C@@H](C)O)C(=O)N[C@@H](C)C(=O)N[C@@H]([C@@H](C)O)C(=O)N1)[C@@H](C)O [Compound 16, [19CD]-isoGlu-RC()NTATC()ATQRLAEFLHHSSNNFAA-Ile(Me)-LSSTNVGSNTP-NH2] ({C20 diacid-γGlu}-RCNTATCATQRLAEFLHHSSNNFAA[NMeI]LSSTNVGSNTP-NH2; disulfide 2-7)	–
